In patent US8906909B2 (Curis, Inc., priority 2009, dated 2014):

What was measured:
[1] = test system: HDACs (HeLa cell nuclear extracts); assay: HDAC enzymatic activity, Biomol Color de Lys system; assay type: biochemical
Method in brief: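 IC50 from sigmoidal dose-response fits of fluorescence (Ex 350–380, Em 440–460 nm). Compounds in DMSO dilution series incubated 1 h at 25 °C with HeLa nuclear extract HDACs and colorimetric substrate, pH 8.0 Tris/Cl buffer with NaCl, KCl, MgCl2, before developer termination.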

Sk-Mel-28 cells = assay: Cell proliferation assay Method A (ATPlite), Sk-Mel-28; assay type: cell-based; details: Homo sapiens, 72 hours, read-out: antiproliferative activity IC50, Sk-Mel-28
Method: (§1) Cancer cell lines were plated at 5,000 to 10,000 per well in 96-well flat bottomed plates with various concentration of compounds. The cells were incubated with compounds for 72 hours in the presence of 0.5% of fetal bovine serum. Growth inhibition was accessed by adenosine triphosphate (ATP) content assay using Perkin Elmer ATPlite kit. ATPlite is an ATP monitoring system based on firefly luciferase. Briefly, 25 μl of mammalian cell lysis solution was added to 50 μl of phenol red-free culture medium per well to lyse the cells and stabilize the ATP. 25 μl of substrate solution was then added to the well and subsequently the luminescence was measured.

BT-474 cells = assay: Cell proliferation assay Method A (ATPlite), BT-474; assay type: cell-based; details: Homo sapiens, 72 hours, read-out: antiproliferative activity IC50, BT-474
Method: as §1

H1993 cells = assay: Cell proliferation assay Method A (ATPlite), H1993; assay type: cell-based; details: Homo sapiens, NCI-H1993, 72 hours, read-out: antiproliferative activity IC50, H1993
Method: as §1

HCT-118 cells = assay: Cell proliferation assay Method A (ATPlite), HCT-118; assay type: cell-based; details: 72 hours, read-out: antiproliferative activity IC50, HCT-118
Method: as §1

IC50 [1] [nM] | melting point [°C] | IC50 (BT-474 cells) [nM] | IC50 (H1993 cells) [nM] | IC50 (HCT-118 cells) [nM] | SMILES | IC50 (Sk-Mel-28 cells) [nM]
< 100 | 215 to 217 | < 100 | < 100 | < 100 | CN(Cc1cc2nc(-c3cc(F)cc4[nH]ncc34)nc(N3CCOCC3)c2s1)c1ncc(C(=O)NO)cn1 [Compound 69, 2-(((2-(6-fluoro-1H-indazol-4-yl)-4-morpholinothieno[3,2-d]pyrimidin-6-yl)methyl)(methyl)amino)-N-hydroxypyrimidine-5-carboxamide] | < 100
< 100 | – | 1000 to 10000 | 1000 to 10000 | 100 to 1000 | CC(=O)OCCN(Cc1cc2nc(-c3cccc4[nH]ncc34)nc(N3CCOCC3)c2s1)c1ncc(C(=O)NO)cn1 [Compound 87] | 100 to 1000
< 100 | 190 to 194 | 100 to 1000 | – | 100 to 1000 | O=C(NO)c1cnc(N(CCO)Cc2cc3nc(-c4cccc5[nH]ncc45)nc(N4CCOCC4)c3s2)nc1 [Compound 86, 2-(((2-(1H-indazol-4-yl)-4-morpholinothieno[3,2-d]pyrimidin-6-yl)methyl)(2-hydroxyethyl)amino)-N-hydroxypyrimidine-5-carboxamide] | 1000 to 10000
< 100 | 160 to 164 | < 100 | < 100 | < 100 | CN(Cc1cc2nc(-c3cccnc3)nc(N3CCOCC3)c2s1)c1ncc(C(=O)NO)cn1 [Compound 109, N-hydroxy-2-(methyl((4-morpholino-2-(pyridin-3-yl)thieno[3,2-d]pyrimidin-6-yl)methyl)amino)pyrimidine-5-carboxamide] | –
< 100 | – | 100 to 1000 | > 10000 | > 10000 | N#CCCN(Cc1cc2nc(-c3cccc4[nH]ncc34)nc(N3CCOCC3)c2s1)c1ncc(C(=O)NO)cn1 [Compound 99] | 100 to 1000
– | – | 100 to 1000 | 1000 to 10000 | < 100 | COCCN(Cc1cc2nc(-c3cccc4[nH]ncc34)nc(N3CCOCC3)c2s1)c1ncc(C(=O)NO)cn1 [Compound 90, 2-(((2-(1H-indazol-4-yl)-4-morpholinothieno[3,2-d]pyrimidin-6-yl)methyl)(2-methoxyethyl)amino)-N-hydroxypyrimidine-5-carboxamide] | –
< 100 | 185 to 187 | – | – | – | CCNc1ccc(-c2nc(N3CCOCC3)c3sc(CN(C)c4ncc(C(=O)NO)cn4)cc3n2)cc1 [Compound 153, 2-(((2-(4-(ethylamino)phenyl)-4-morpholinothieno[3,2-d]pyrimidin-6-yl)methyl)(methyl)amino)-N-hydroxypyrimidine-5-carboxamide] | –
< 100 | 170 to 172 | – | – | – | Cc1ccc(-c2nc(N3CCOCC3)c3sc(CN(C)c4ncc(C(=O)NO)cn4)cc3n2)cc1 [Compound 201, N-hydroxy-2-(methyl((4-morpholino-2-p-tolylthieno[3,2-d]pyrimidin-6-yl)methyl)amino)pyrimidine-5-carboxamide] | –
< 100 | 146 to 156 | – | – | – | CN(Cc1cc2nc(-c3cccc4c3CCN4)nc(N3CCOCC3)c2s1)c1ncc(C(=O)NO)cn1 [Compound 177, N-hydroxy-2-(((2-(indolin-4-yl)-4-morpholinothieno[3,2-d]pyrimidin-6-yl)methyl)(methyl)amino)pyrimidine-5-carboxamide] | –
< 100 | 173 to 176 | – | – | – | CN(Cc1cc2nc(-c3cccc(CN)c3)nc(N3CCOCC3)c2s1)c1ncc(C(=O)NO)cn1 [Compound 137, 2-(((2-(3-(aminomethyl)phenyl)-4-morpholinothieno[3,2-d]pyrimidin-6-yl)methyl)(methyl)amino)-N-hydroxypyrimidine-5-carboxamide] | –
< 100 | 179 to 181 | – | – | – | COc1cccc(-c2nc(N3CCOCC3)c3sc(CN(C)c4ncc(C(=O)NO)cn4)cc3n2)c1 [Compound 130, N-hydroxy-2-(((2-(3-methoxyphenyl)-4-morpholinothieno[3,2-d]pyrimidin-6-yl)methyl)(methyl)amino)pyrimidine-5-carboxamide] | –
< 100 | 222 to 223 | – | – | – | CN(Cc1cc2nc(-c3ccc(C(F)(F)F)cc3)nc(N3CCOCC3)c2s1)c1ncc(C(=O)NO)cn1 [Compound 202, N-hydroxy-2-(methyl((4-morpholino-2-(4-(trifluoromethyl)phenyl)thieno[3,2-d]pyrimidin-6-yl)methyl)amino)pyrimidine-5-carboxamide] | –
< 100 | – | 1000 to 10000 | > 10000 | 1000 to 10000 | O=C(NO)c1cnc(N(CCCO)Cc2cc3nc(-c4cccc5[nH]ncc45)nc(N4CCOCC4)c3s2)nc1 [Compound 91] | –
< 100 | 200 to 212 | – | – | – | CN(Cc1cc2nc(-c3cccc4[nH]ccc34)nc(N3CCOCC3)c2s1)c1ncc(C(=O)NO)cn1 [Compound 176, 2-(((2-(1H-indol-4-yl)-4-morpholinothieno[3,2-d]pyrimidin-6-yl)methyl)(methyl)amino)-N-hydroxypyrimidine-5-carboxamide] | –
< 100 | 175 to 189 | – | – | – | CN(Cc1cc2nc(-c3cc[nH]c3)nc(N3CCOCC3)c2s1)c1ncc(C(=O)NO)cn1 [Compound 197, N-hydroxy-2-(methyl((4-morpholino-2-(1H-pyrrol-3-yl)thieno[3,2-d]pyrimidin-6-yl)methyl)amino)pyrimidine-5-carboxamide] | –
< 100 | 178 to 181 | – | – | – | COCc1cccc(-c2nc(N3CCOCC3)c3sc(CN(C)c4ncc(C(=O)NO)cn4)cc3n2)c1 [Compound 139, N-hydroxy-2-(((2-(3-(methoxymethyl)phenyl)-4-morpholinothieno[3,2-d]pyrimidin-6-yl)methyl)(methyl)amino)pyrimidine-5-carboxamide] | –
< 100 | 241 to 246 | – | – | – | CN(Cc1cc2nc(-c3ccc(N)c(Cl)c3)nc(N3CCOCC3)c2s1)c1ncc(C(=O)NO)cn1 [Compound 275, 2-(((2-(4-Amino-3-chlorophenyl)-4-morpholinothieno[3,2-d]pyrimidin-6-yl)methyl)(methyl)amino)-N-hydroxypyrimidine-5-carboxamide] | –
100 to 1000 | – | 100 to 1000 | 100 to 1000 | 100 to 1000 | CN(Cc1cc2nc(-c3cccc4[nH]ncc34)nc(N3CCOCC3)c2s1)c1ncc(/C=C/C(=O)NO)cn1 [Compound 75] | 100 to 1000
1000 to 10000 | 240 to 242 | – | – | – | CC(C)(C)CN(Cc1cc2nc(-c3cccc4[nH]ncc34)nc(N3CCOCC3)c2s1)c1ncc(C(=O)NO)cn1 [Compound 83, 2-(((2-(1H-indazol-4-yl)-4-morpholinothieno[3,2-d]pyrimidin-6-yl)methyl)(neopentyl)amino)-N-hydroxypyrimidine-5-carboxamide] | –
< 100 | 235 to 240 | – | – | – | Nc1ncc(-c2nc(N3CCOCC3)c3sc(NCCCCCCC(=O)NO)cc3n2)cn1 [Compound 234, 7-[2-(2-Amino-pyrimidin-5-yl)-4-morpholin-4-yl-thieno[3,2-d]pyrimidin-6-ylamino]-heptanoic acid hydroxyamide] | –
< 100 | 184 to 186 | – | – | – | CN(Cc1cc2nc(-c3ccc(CN)cc3)nc(N3CCOCC3)c2s1)c1ncc(C(=O)NO)cn1 [Compound 135, 2-(((2-(4-(aminomethyl)phenyl)-4-morpholinothieno[3,2-d]pyrimidin-6-yl)methyl)(methyl)amino)-N-hydroxypyrimidine-5-carboxamide] | –
< 100 | 199 to 200 | – | – | – | CN(Cc1cc2nc(-c3ccccc3)nc(N3CCOCC3)c2s1)c1ncc(C(=O)NO)cn1 [Compound 129, N-hydroxy-2-(methyl((4-morpholino-2-phenylthieno[3,2-d]pyrimidin-6-yl)methyl)amino)pyrimidine-5-carboxamide] | –
< 100 | 203 to 206 | – | – | – | CN(Cc1cc2nc(-c3ccc(N)c(F)c3)nc(N3CCOCC3)c2s1)c1ncc(C(=O)NO)cn1 [Compound 276, 2-(((2-(4-Amino-3-fluorophenyl)-4-morpholinothieno[3,2-d]pyrimidin-6-yl)methyl)(methyl)amino)-N-hydroxypyrimidine-5-carboxamide] | –
< 100 | > 300 | – | – | – | CN(Cc1cc2nc(-c3ccc4[nH]c(C(F)(F)F)nc4c3)nc(N3CCOCC3)c2s1)c1ncc(C(=O)NO)cn1 [Compound 318] | –
< 100 | 197 to 201 | – | – | – | CC(=O)Nc1ccc(-c2nc(N3CCOCC3)c3sc(CN(C)c4ncc(C(=O)NO)cn4)cc3n2)cn1 [Compound 112, 2-(((2-(6-acetamidopyridin-3-yl)-4-morpholinothieno[3,2-d]pyrimidin-6-yl)methyl)(methyl)amino)-N-hydroxypyrimidine-5-carboxamide] | –
< 100 | – | < 100 | – | < 100 | CCN(Cc1cc2nc(-c3cccc4[nH]ncc34)nc(N3CCOCC3)c2s1)c1ncc(C(=O)NO)cn1 [Compound 92] | 100 to 1000
